Active and inactive are the calls of the source. The calls are words filed in the database; no cut-off is given here.
Assays:
[1] = test system: PANC-1; test: Cytotoxicity in pancreatic PANC1 cancer cells at 100 ug/ml in nutrient-rich condition; format: functional, cell-based; conditions: Homo sapiens
[2] = test system: PANC-1; test: Cytotoxicity in pancreatic PANC1 cancer cells at 100 ug/ml in nutrient-deprived condition; format: functional, cell-based; conditions: Homo sapiens
[3] = test system: PANC-1; test: Cytotoxicity in pancreatic PANC1 cancer cells at 0.01 ug/ml within 24 hours of nutrient deprivation; format: functional, Homo sapiens
[4] = test system: PANC-1; test: Cytotoxicity in pancreatic PANC1 cancer cells at 10 ug/ml within 6 hours of nutrient deprivation; format: functional, Homo sapiens

SMILES | Activity [1] | Activity [2] | Activity [3] [%] | Activity [4] [%]
CC(C)(O)[C@@H]1Cc2c(ccc3ccc(=O)oc23)O1 | inactive | inactive |  | 
CC(C)(OC(=O)/C=C/c1ccc(O)cc1)[C@@H]1Cc2c(ccc3ccc(=O)oc23)O1 [ANGELMARIN] |  |  | 100 | 100

Source: ChEMBL document CHEMBL1149407, “Angelmarin, a novel anti-cancer agent able to eliminate the tolerance of cancer cells to nutrient starvation” (2006)
